#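 Cells were grown in 96-well plates and exposed to each compound for 48 hours at five concentrations; endpoints were interpolated linearly between bracketing concentrations, or set to the highest concentration if not reached. GI50 marks 50% less growth. TGI is the concentration that stops growth completely.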
# Test system: DU-145 prostate
# Experiment: NCI tumour cell line growth inhibition, 48 h
SMILES,GI50 [µM],TGI [µM]
Cc1ccc(C(=O)CC(Sc2cccc(Cl)c2Cl)c2ccc(Cl)cc2)cc1C (configuration not stated),16.1,34.9
Cc1ccc2/c(=C/c3ccc(N(C)C)cc3)c3cc(-c4ccccc4)[n+](C)n3c2c1,0.0473,4.37
CNC(=O)c1cn(C[C@H](F)CCc2ccc(NC(=O)Cc3cc(OC4CC(F)(F)C4)cc(C)n3)nn2)nn1,> 100,> 100
COC(=O)C(Cc1ccccc1)N/C=C\C(=O)c1ccc(Cl)cc1 (configuration not stated),31.5,> 100
CNC(=O)c1ccc(-c2cnc3ncc(Cc4ccc5ncccc5c4)n3n2)cc1F,> 100,> 100
O=C1c2ccccc2-c2c1c1ccccc1c(=O)n2CCNCCCNCCn1c2c(c3ccccc3c1=O)C(=O)c1ccccc1-2,0.0736,0.739
CN(C)c1nc(-c2cccs2)n2nc(-c3ccc(Cl)cc3)cc2n1,> 100,> 100
COc1cc(/C=C2\CC3C4CC=C5CC(N6CCCC6)CC[C@]5(C)C4CC[C@]3(C)C2OC(C)=O)ccc1OCCN1CCCC1 (some centres not stated),3.52,> 100
COC(=O)NC/C=C\c1nc(CC/C=C\C(=O)OC2CC3CC(=O)O[C@@H](/C=C/CC(C)C)C[C@@H]4CCC(C)C(C[C@@H](OC)CC(C2)O3)O4)co1 (some centres not stated),4.59,> 100
Nc1ccc(SC23CC4CC(CC(C4)C2)C3)cc1,–,> 100

# Test system: SF-539 CNS
# Experiment: NCI tumour cell line growth inhibition, 48 h
SMILES,TGI [µM],GI50 [µM]
CN(C)C(=S)/N=c1\ss/c(=N\S(=O)(=O)c2ccccc2)n1-c1ccccc1,> 100,–
N#Cc1c(N)c(C(=O)O)nn(-c2cccc(C(F)(F)F)c2)c1=O,> 100,–
CCOC(=O)Cc1nc(/C(C#N)=C/c2ccco2)[nH]c(=O)c1C#N,> 100,–
CC1=Nc2c(ccc3c2C(=O)c2ccccc2C3=O)NC(c2ccncc2)C1 (configuration not stated),> 100,> 100
Cc1ccc(C(=O)CC(Sc2cccc(Cl)c2Cl)c2ccc(Cl)cc2)cc1C (configuration not stated),53.6,22.8
COc1cc(/C=C\c2ccc(O)cc2)cc(OC)c1OC,> 100,–
Cc1ccc2/c(=C/c3ccc(N(C)C)cc3)c3cc(-c4ccccc4)[n+](C)n3c2c1,2.21,0.0456
C=C(COC(C)=O)CC(/C=C(\C)CCC=C(C)C)OC(C)=O (configuration not stated),> 100,–
CNC(=O)c1cn(C[C@H](F)CCc2ccc(NC(=O)Cc3cc(OC4CC(F)(F)C4)cc(C)n3)nn2)nn1,> 100,> 100
COC(=O)C(Cc1ccccc1)N/C=C\C(=O)c1ccc(Cl)cc1 (configuration not stated),45.1,18.6
CC1(C)CCc2cc3c(cc2O1)OCCC3=O,> 100,–
Oc1c2c(c(O)c3ccccc13)=N[C@@H](c1ccccc1)[C@H](c1ccccc1)N=2,> 100,–
c1cc[c]([Sn]([S]c2cccc3cccnc23)([c]2ccccc2)[c]2ccccc2)cc1,0.393,0.0725
CNC(=O)c1ccc(-c2cnc3ncc(Cc4ccc5ncccc5c4)n3n2)cc1F,> 100,54.1
O=C1CCn2c([nH]c3cccc4cccc2c43)=N1,> 100,–
CCOc1cccc2nc3cccc(C(=O)NCCN(C)C)c3nc12,6.77,–
Cc1cc(C)nc(NS(=O)(=O)c2ccc(Nc3c4ccccc4nc4c(C(=O)N5CCN(CCOS(C)(=O)=O)CC5)ccc(Cl)c34)cc2)n1,> 100,–
Clc1cc(Cl)c2c(Cl)cc(Cl)c3c2c1N=S=N3,> 100,–
CN1CCN(C)C1c1cccc(C2N(C)CCN2C)c1,> 100,–
CC(=O)OCCOCBr,> 100,–
O=C1c2ccccc2-c2c1c1ccccc1c(=O)n2CCNCCCNCCn1c2c(c3ccccc3c1=O)C(=O)c1ccccc1-2,1.36,0.0848
CC(O)CN1C(=O)NC(Cc2ccccc2)C1=O (configuration not stated),> 100,–
O=C(c1ccccc1)[C@H]1Nc2cnccc2C2c3ccccc3CC21 (some centres not stated),> 62.6,–
CN(C)c1nc(-c2cccs2)n2nc(-c3ccc(Cl)cc3)cc2n1,> 100,25.5

# Reference: PubChem BioAssay (NCI)
